Reference: ChEMBL document CHEMBL5126528, “Recent strategies targeting Embryonic Ectoderm Development (EED) for cancer therapy: Allosteric inhibitors, PPI inhibitors, and PROTACs” (Eur J Med Chem, 2022)
Values after ≈ are worked out from the molar mass of the structure shown. Counter-ions that a name gives are not always drawn.

Columns and labels:
Polycomb protein EED [1] = molecular target: T1, Polycomb protein EED (Homo sapiens, UniProt O75530); assay: Inhibition of EED (unknown origin)
KARPAS-422 = assay: Antiproliferative activity against human KARPAS-422 cells treated for 11 days; format: functional, cell-based; settings: KARPAS-422, 264 h
Pfeiffer = assay: Antiproliferative activity against human Pfeiffer cells treated for 14 days; format: functional, cell-based; settings: 336 h
Polycomb protein EED [2] = molecular target: T1, Polycomb protein EED; assay: Binding affinity to EED (unknown origin) assessed as dissociation constant by SPR analysis
[3] = Inhibition of PRC2 (unknown origin); parameters: species or system Homo sapiens
[4] = Binding affinity to EZH2-EED (unknown origin) protein interaction assessed as inhibition constant by FP binding assay; parameters: species or system Homo sapiens
[5] = Inhibition of EZH2-EED (unknown origin) protein interaction by FP binding assay; parameters: species or system Homo sapiens
Polycomb protein EED [6] = molecular target: T1, Polycomb protein EED; assay: Inhibition of human EED (76 to 441 residues) expressed in Escherichia coli strain BL21(DE3) by alpha screen assay
Polycomb protein EED [7] = molecular target: T1, Polycomb protein EED; assay: Binding affinity to EED (unknown origin) assessed as dissociation constant
[8] = Solubility of the compound at pH 7.4; format: physicochemical; settings: buffer
[9] = Inhibition of FITC-labeled EZH2 (39 to 63 residues) (unknown origin)/N-terminal 6x His-tagged human EED protein interaction by incubated for 2 hrs FP-based competitive assay
[10] = Inhibition of GST-tagged EZH2/FLAG-tagged EED (unknown origin) protein protein interaction incubated for 1 hr by AlphaLISA method; parameters: species or system Homo sapiens
Homo sapiens = species: Homo sapiens; assay: Inhibition of GST-tagged EZH2/FLAG-tagged EED (unknown origin) protein protein interaction at 100 uM incubated for 1 hr by AlphaLISA method relative to control

T1 sequence (O75530 whole entry): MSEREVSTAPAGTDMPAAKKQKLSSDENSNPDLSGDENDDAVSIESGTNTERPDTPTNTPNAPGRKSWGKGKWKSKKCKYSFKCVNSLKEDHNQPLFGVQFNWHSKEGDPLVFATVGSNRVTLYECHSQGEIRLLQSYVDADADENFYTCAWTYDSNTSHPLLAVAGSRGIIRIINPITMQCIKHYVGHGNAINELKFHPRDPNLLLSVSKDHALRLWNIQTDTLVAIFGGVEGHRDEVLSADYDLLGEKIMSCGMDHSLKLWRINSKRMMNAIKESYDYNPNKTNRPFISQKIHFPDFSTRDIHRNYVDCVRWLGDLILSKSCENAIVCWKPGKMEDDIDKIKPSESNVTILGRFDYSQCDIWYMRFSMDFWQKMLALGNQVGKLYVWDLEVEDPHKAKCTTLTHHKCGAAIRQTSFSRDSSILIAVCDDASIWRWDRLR

SMILES: CC(=O)N1CC=C(c2cnc(NCC3Cc4cc(F)ccc4O3)n3cnnc23)CC1 (stereo not given)
- IC50 (Polycomb protein EED [1]): < 20 nM
- IC50 (KARPAS-422): 7 nM
- IC50 (Pfeiffer): 0.7 nM

SMILES: Cc1ncccc1-c1cnc(NCc2c(F)cc(N)c3c2CCO3)n2cnnc12
- Kd (Polycomb protein EED [2]): 0.5 nM
- IC50 [3]: 50 nM

SMILES: COC(=O)C1=C(C)NC(C)=C(C(=O)OC)C1c1ccccc1[N+](=O)[O-] [NIFEDIPINE]
- Ki [4]: 66.6 µM
- IC50 [5]: 343 µM

SMILES: Cc1nc(NCc2c(F)ccc3c2CCO3)sc1-c1ccnn1C
- IC50 (Polycomb protein EED [6]): 2100 nM
- Kd (Polycomb protein EED [7]): 900 nM

SMILES: Cc1ncccc1-c1cnc(NCc2c(F)cc(C#N)c3c2CCO3)n2cnnc12
- solubility [8]: 3 µM (≈ 1.2 µg/mL)
- Kd (Polycomb protein EED [2]): 15 nM
- IC50 [3]: 102 nM

SMILES: Cc1ncccc1-c1cnc(NCc2c(F)cc(O)c3c2CCO3)n2cnnc12
- solubility [8]: 5 µM (≈ 1.96 µg/mL)
- IC50 [3]: 15 nM

SMILES: Cc1ncccc1-c1cnc(NCc2c(F)cc(Cl)c3c2CCO3)n2cnnc12
- solubility [8]: 0.2 µM (≈ 0.0822 µg/mL)
- Kd (Polycomb protein EED [2]): 2.4 nM
- IC50 [3]: 16 nM

SMILES: CCS(=O)(=O)N1CC=C(c2cnc(NCC3Cc4cc(F)ccc4O3)n3cnnc23)CC1 (stereo not given)
- IC50 (Polycomb protein EED [1]): < 20 nM
- IC50 (KARPAS-422): 4 nM
- IC50 (Pfeiffer): 0.8 nM

SMILES: Cc1ncccc1-c1cc2c(n3cnnc13)NCc1c(F)ccc3c1[C@H](CO3)CO2 [POCIREDIR]
- Kd (Polycomb protein EED [7]): 163 nM

SMILES: Cc1cc(-c2cnc(NCC3Cc4cc(F)ccc4O3)n3cc(C#N)nc23)n(C)n1 (stereo not given)
- IC50 (Polycomb protein EED [1]): < 100 nM

SMILES: Cc1ncccc1-c1cnc(NCC2Cc3cc(F)ccc3O2)c2nncn12 (stereo not given)
- IC50 (Polycomb protein EED [1]): < 100 nM

SMILES: Cc1sc(NC(=O)CCCCC(=O)Nc2sc(C)c(C)c2C(N)=O)c(C(N)=O)c1C
- IC50 [9]: 54.9 µM

SMILES: CN1CC=C(c2cnc(NCC3Cc4cc(F)ccc4O3)c3cncnc23)CC1 (stereo not given)
- IC50 (Polycomb protein EED [1]): < 100 nM

SMILES: C[C@@H](CO)NC(=O)[C@@H]1C=C2c3cccc4[nH]cc(c34)C[C@H]2N(C)C1 [ERGONOVINE MALEATE]
- Ki [4]: 71.1 µM
- IC50 [5]: 366 µM

SMILES: CCOc1ccc(C(=O)CSc2nnc(-c3ccc(O)cc3)c(-c3ccc(O)cc3)n2)cc1NC(=O)CC
- IC50 [10]: 64 µM

SMILES: O=C1Nc2ccc(S(=O)(=O)NCCCCCCNS(=O)(=O)c3ccc4c5c(cccc35)C(=O)N4)c3cccc1c23
- inhibition (Homo sapiens): 84%

SMILES: Cc1ccc(C(C2=C(O)CC(C)(C)CC2=O)C2C(=O)CC(C)(C)CC2=O)s1 (stereo not given)
- IC50 [9]: 63.8 µM

SMILES: CCCCC1C(=O)N(c2ccccc2)N(c2ccc(O)cc2)C1=O (stereo not given) [OXYPHENBUTAZONE ANHYDROUS]
- Ki [4]: 44.5 µM
- IC50 [5]: 229 µM

SMILES: Cc1ncccc1-c1cnc(NCc2c(F)ccc3c2CCO3)n2cnnc12
- Kd (Polycomb protein EED [2]): 0.4 nM
- IC50 [3]: 5 nM

SMILES: CCCCc1ccc(Nc2nnc(SCc3occc3C(=O)O)s2)cc1
- IC50 [10]: 32 µM

SMILES: CN1CC=C(c2cnc(NCC3Cc4cc(F)ccc4O3)c3nncn23)CC1 (stereo not given)
- IC50 (Polycomb protein EED [1]): < 100 nM

SMILES: Cc1ncccc1-c1cnc(NCc2c(F)cc(F)c3c2CCO3)n2cnnc12
- solubility [8]: 4 µM (≈ 1.58 µg/mL)
- Kd (Polycomb protein EED [2]): 1.2 nM
- IC50 [3]: 11 nM

SMILES: O=C(CC1S/C(=N\c2ccccc2F)N(Cc2ccc3c(c2)OCO3)C1=O)Nc1ccc(C(=O)O)cc1 (stereo not given)
- inhibition (Homo sapiens): 49%

SMILES: CS(=O)(=O)N1CC=C(c2cnc(NCC3Cc4cc(F)ccc4O3)n3cnnc23)CC1 (stereo not given)
- IC50 (Polycomb protein EED [1]): < 20 nM
- IC50 (KARPAS-422): 13 nM
- IC50 (Pfeiffer): 1 nM

SMILES: Cc1nc(NCc2cccc3c2OCO3)sc1-c1ccn(C)n1
- IC50 (Polycomb protein EED [6]): 2100 nM
- Kd (Polycomb protein EED [7]): 5200 nM

SMILES: Cc1ncccc1-c1sc(NCc2c(F)ccc3c2CCO3)nc1C
- IC50 (Polycomb protein EED [6]): 5600 nM
- Kd (Polycomb protein EED [7]): 3700 nM

SMILES: Cc1ncccc1-c1cnc(NCC2Cc3cc(F)ccc3O2)c2cncnc12 (stereo not given)
- IC50 (Polycomb protein EED [1]): < 100 nM

SMILES: Cc1ncccc1-c1cnc(NCC2Cc3cc(F)ccc3O2)n2cc(C#N)nc12 (stereo not given)
- IC50 (Polycomb protein EED [1]): < 100 nM

SMILES: CN1CC=C(c2cnc(NCC3Cc4cc(F)ccc4O3)n3cnnc23)CC1 (stereo not given)
- IC50 (Polycomb protein EED [1]): < 20 nM
- IC50 (KARPAS-422): 2.8 nM
- IC50 (Pfeiffer): 2 nM

SMILES: COc1ccc(CCN2CCC(Nc3nc4ccccc4n3Cc3ccc(F)cc3)CC2)cc1 [ASTEMIZOLE]
- IC50 [9]: 93.8 µM

SMILES: CN1CCc2cccc3c2[C@H]1Cc1ccc(O)c(O)c1-3 [APOMORPHINE HYDROCHLORIDE]
- Ki [4]: 2.9 µM
- IC50 [5]: 15.5 µM
